# PMC7531601, “Exploiting Lactoferricin (17–30) as a Potential Antimicrobial and Antibiofilm Candidate Against Multi-Drug-Resistant Enteroaggregative Escherichia coli” (Frontiers in Microbiology, 2020)
# Like-named read-outs stand apart in the source and are kept apart here. Ends that are not written are not given here.
# Columns and labels:
# MDR-EAEC isolates = conditions: for MIC / MBC: 37°C
# Method: (§1) Initially, characterization of Lfcin (17–30) was performed by determining its minimum inhibitory concentration (MIC), minimum bactericidal concentration (MBC), in vitro stability assays (high-end temperatures, the physiological concentration of cationic salts and proteases), and in vitro safety assays (sheep erythrocyte hemolysis and secondary cell line cytotoxicity) (Supplementary Files S1–S3). The membrane permeabilization effect of Lfcin (17–30) was assessed by flow cytometry, whereas outer and inner membrane permeability of MDR-EAEC strains treated with 1 × and 2 × MIC levels of Lfcin (17–30) was carried out based on the nitrocefin activity as well as the release of cytoplasmic β-galactosidase activity, respectively (Supplementary File S4). Further, Lfcin (17–30) was evaluated for its antibacterial activity against beneficial lactobacilli (L. acidophilus MTCC 10307 and L. rhamnosus MTCC 1408) (Supplementary File S5).
# To explore the utility of Lfcin (17-30) as a therapeutic molecule, in vitro stability was evaluated by exposing it to high-end temperatures, proteases as well as the physiological concentration of salts. In brief, the effect of temperature was investigated by incubating Lfcin (17-30) at 70 °C and 90 °C for 5, 15, and 30 min followed by measuring the MIC value. The effect of proteases (trypsin and proteinase-K) on the antimicrobial activity of Lfcin (17-30) [Protease: AMP- 1:100 (w/w)] was investigated by incubating with the respective protease at 37 °C for 30 sec, 2, 5, 15 and 30 min, followed by inactivating the enzyme at 90 °C for 10 min and measuring the MIC value. The stability of Lfcin (17-30) in the presence of high salt concentrations (150 mM and 2 mM MgCl2) was estimated in regular MH broth. Appropriate controls were included in each experiment.
# MDR-EAEC strains = MDR-EAEC strains (n = 3)
# Method: as §1
# [1] = proteinase-K 1:100 (w/w), 5 min, MDR 1
# [2] = proteinase-K 1:100 (w/w), 5 min, MDR 2
# [3] = proteinase-K 1:100 (w/w), 5 min, MDR 3
# [4] = proteinase-K 1:100 (w/w), 15 min, MDR 1
# [5] = proteinase-K 1:100 (w/w), 15 min, MDR 2
# [6] = proteinase-K 1:100 (w/w), 15 min, MDR 3
# [7] = proteinase-K 1:100 (w/w), 30 min, MDR 1
# [8] = proteinase-K 1:100 (w/w), 30 min, MDR 2
# [9] = proteinase-K 1:100 (w/w), 30 min, MDR 3
# [10] = trypsin 1:100 (w/w), 2 min, MDR 1
# [11] = trypsin 1:100 (w/w), 2 min, MDR 2
# [12] = trypsin 1:100 (w/w), 2 min, MDR 3
# [13] = trypsin 1:100 (w/w), 5 min, MDR 1
# [14] = trypsin 1:100 (w/w), 5 min, MDR 2
# [15] = trypsin 1:100 (w/w), 5 min, MDR 3
# [16] = trypsin 1:100 (w/w), 15 min, MDR 1
# [17] = trypsin 1:100 (w/w), 15 min, MDR 2
# [18] = trypsin 1:100 (w/w), 15 min, MDR 3
# [19] = trypsin 1:100 (w/w), 30 min, MDR 1
# [20] = trypsin 1:100 (w/w), 30 min, MDR 2
# [21] = trypsin 1:100 (w/w), 30 min, MDR 3
sequence,measurement,setting,value
FKCRRWQWRMKKLG [Lfcin (17–30)],MIC,"MDR-EAEC isolates; proteinase-K 1:100 (w/w), 2 min, MDR 3",4.0 µg/mL
same,MBC,MDR-EAEC isolates; [1],16.0 µg/mL
same,MIC,MDR-EAEC isolates; [1],8.0 µg/mL
same,MBC,MDR-EAEC isolates; [2],32.0 µg/mL
same,MIC,MDR-EAEC isolates; [2],8.0 µg/mL
same,MBC,MDR-EAEC isolates; [3],4.0 µg/mL
same,MIC,MDR-EAEC isolates; [3],4.0 µg/mL
same,MBC,MDR-EAEC isolates; [4],16.0 µg/mL
same,MIC,MDR-EAEC isolates; [4],8.0 µg/mL
same,MBC,MDR-EAEC isolates; [5],32.0 µg/mL
same,MIC,MDR-EAEC isolates; [5],8.0 µg/mL
same,MBC,MDR-EAEC isolates; [6],4.0 µg/mL
same,MIC,MDR-EAEC isolates; [6],4.0 µg/mL
same,MBC,MDR-EAEC isolates; [7],8.0 µg/mL
same,MIC,MDR-EAEC isolates; [7],8.0 µg/mL
same,MBC,MDR-EAEC isolates; [8],16.0 µg/mL
same,MIC,MDR-EAEC isolates; [8],8.0 µg/mL
same,MBC,MDR-EAEC isolates; [9],4.0 µg/mL
same,MIC,MDR-EAEC isolates; [9],2.0 µg/mL
same,MIC,"MDR-EAEC isolates; proteinase-K, protease:AMP 1:100 (w/w), 0.5 min, enzyme inactivated 90°C 10 min, MDR 1",8.0 µg/mL
same,MIC,"MDR-EAEC isolates; proteinase-K, protease:AMP 1:100 (w/w), 0.5 min, enzyme inactivated 90°C 10 min, MDR 2",8.0 µg/mL
same,MIC,"MDR-EAEC isolates; proteinase-K, protease:AMP 1:100 (w/w), 0.5 min, enzyme inactivated 90°C 10 min, MDR 3",4.0 µg/mL
same,stability to protease (proteinase-K),"MDR-EAEC isolates; proteinase-K, judged by MIC and MBC",stable
same,MBC,"MDR-EAEC isolates; trypsin 1:100 (w/w), 0.5 min, MDR 1",16.0 µg/mL
same,MBC,"MDR-EAEC isolates; trypsin 1:100 (w/w), 0.5 min, MDR 2",16.0 µg/mL
same,MBC,"MDR-EAEC isolates; trypsin 1:100 (w/w), 0.5 min, MDR 3",16.0 µg/mL
same,MBC,MDR-EAEC isolates; [10],16.0 µg/mL
same,MIC,MDR-EAEC isolates; [10],16.0 µg/mL
same,MBC,MDR-EAEC isolates; [11],16.0 µg/mL
same,MIC,MDR-EAEC isolates; [11],16.0 µg/mL
same,MBC,MDR-EAEC isolates; [12],16.0 µg/mL
same,MIC,MDR-EAEC isolates; [12],16.0 µg/mL
same,MBC,MDR-EAEC isolates; [13],16.0 µg/mL
same,MIC,MDR-EAEC isolates; [13],16.0 µg/mL
same,MBC,MDR-EAEC isolates; [14],16.0 µg/mL
same,MIC,MDR-EAEC isolates; [14],16.0 µg/mL
same,MBC,MDR-EAEC isolates; [15],16.0 µg/mL
same,MIC,MDR-EAEC isolates; [15],16.0 µg/mL
same,MBC,MDR-EAEC isolates; [16],16.0 µg/mL
same,MIC,MDR-EAEC isolates; [16],16.0 µg/mL
same,MBC,MDR-EAEC isolates; [17],16.0 µg/mL
same,MIC,MDR-EAEC isolates; [17],16.0 µg/mL
same,MBC,MDR-EAEC isolates; [18],32.0 µg/mL
same,MIC,MDR-EAEC isolates; [18],16.0 µg/mL
same,MBC,MDR-EAEC isolates; [19],16.0 µg/mL
same,MIC,MDR-EAEC isolates; [19],16.0 µg/mL
same,MBC,MDR-EAEC isolates; [20],16.0 µg/mL
same,MIC,MDR-EAEC isolates; [20],16.0 µg/mL
same,MBC,MDR-EAEC isolates; [21],32.0 µg/mL
same,MIC,MDR-EAEC isolates; [21],16.0 µg/mL
same,MIC,"MDR-EAEC isolates; trypsin, protease:AMP 1:100 (w/w), 0.5 min, enzyme inactivated 90°C 10 min, MDR 1",16.0 µg/mL
same,MIC,"MDR-EAEC isolates; trypsin, protease:AMP 1:100 (w/w), 0.5 min, enzyme inactivated 90°C 10 min, MDR 2",16.0 µg/mL
same,MIC,"MDR-EAEC isolates; trypsin, protease:AMP 1:100 (w/w), 0.5 min, enzyme inactivated 90°C 10 min, MDR 3",16.0 µg/mL
same,stability to protease (trypsin),"MDR-EAEC isolates; trypsin, judged by MIC and MBC",stable
same,MBC,MDR-EAEC strains; at least 99.9% killing after 24 h,32 µM
same,MIC,MDR-EAEC strains; micro-broth dilution,32 µM
